Measured values: patent US20150197497A1, “SELECTIVE INHIBITORS OF HISTONE DEACETYLASE ISOFORM 6 AND METHODS THEREOF” (DANA-FARBER CANCER INSTITUTE, INC., priority 2011, published 2015)

Assays:
HDAC3 = target: T1, HDAC3 (Homo sapiens, UniProt O15379); assay: In vitro HDAC enzyme inhibition assay, HDAC3; type: biochemical; conditions: for HDAC3/HDAC6 in vitro selectivity: ratio of IC50 for HDAC3 relative to that of HDAC6; for IC50: recombinant full-length HDAC3, substrate MAZ1600 9 μM
T1 construct: Recombinant, full-length HDAC protein (BPS Biosciences) was incubated with fluorophore conjugated substrate; purchased BPS Biosciences
T1 sequence (O15379 whole entry): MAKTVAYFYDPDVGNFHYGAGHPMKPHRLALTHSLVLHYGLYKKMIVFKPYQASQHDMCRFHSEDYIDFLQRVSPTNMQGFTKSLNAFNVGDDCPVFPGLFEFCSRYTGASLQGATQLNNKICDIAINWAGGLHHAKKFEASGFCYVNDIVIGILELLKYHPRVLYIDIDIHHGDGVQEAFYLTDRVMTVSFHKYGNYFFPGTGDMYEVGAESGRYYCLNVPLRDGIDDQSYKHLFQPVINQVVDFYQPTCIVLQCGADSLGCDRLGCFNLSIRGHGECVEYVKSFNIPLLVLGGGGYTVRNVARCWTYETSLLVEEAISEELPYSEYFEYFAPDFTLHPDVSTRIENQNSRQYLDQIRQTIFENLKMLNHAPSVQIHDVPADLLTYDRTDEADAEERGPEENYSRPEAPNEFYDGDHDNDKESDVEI
T1 sequence (Q9Y618 395-489 partner limits assumed): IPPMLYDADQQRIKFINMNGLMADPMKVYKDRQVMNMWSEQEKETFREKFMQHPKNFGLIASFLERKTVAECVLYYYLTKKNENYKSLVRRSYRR
Outline: (§1)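 Full-length recombinant enzyme + MAZ1600/MAZ1675 substrate at [S]=Km, HEPES/KCl/Tween-20/BSA/TCEP buffer pH 7.4; AMC fluorescence via deacetylase + trypsin, kinetic read q5 min; slope in linear range normalized to controls.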

acetylated histones = assay: High-content image analysis of induction of acetylated histones in A549 cells; conditions: for EC50: Homo sapiens, A549, 8 h, read-out: EC50 for half-maximal induction of acetylated histones (AcHistone)
HDAC8 = target: T2, HDAC8 (Homo sapiens, UniProt Q9BY41); assay: In vitro HDAC enzyme inhibition assay, HDAC8; type: biochemical; conditions: for HDAC8/HDAC6 in vitro selectivity: ratio of IC50 for HDAC8 relative to that of HDAC6; for IC50: recombinant full-length HDAC8, substrate MAZ1675 282 μM
T2 construct: Recombinant, full-length HDAC protein (BPS Biosciences) was incubated with fluorophore conjugated substrate; purchased BPS Biosciences
T2 sequence (Q9BY41 1-377): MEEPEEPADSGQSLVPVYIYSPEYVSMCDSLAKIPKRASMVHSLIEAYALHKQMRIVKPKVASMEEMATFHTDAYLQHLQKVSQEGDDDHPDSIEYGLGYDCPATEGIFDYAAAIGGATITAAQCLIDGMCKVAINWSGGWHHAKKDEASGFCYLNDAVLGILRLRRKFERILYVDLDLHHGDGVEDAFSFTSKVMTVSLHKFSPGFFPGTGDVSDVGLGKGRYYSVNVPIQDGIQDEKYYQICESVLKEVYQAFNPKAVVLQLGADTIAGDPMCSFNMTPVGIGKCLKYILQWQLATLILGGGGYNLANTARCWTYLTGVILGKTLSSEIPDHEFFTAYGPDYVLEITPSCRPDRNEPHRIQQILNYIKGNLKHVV
Outline: as §1

HDAC5 = target: T3, HDAC5 (Homo sapiens, UniProt Q9UQL6); assay: In vitro HDAC enzyme inhibition assay, HDAC5; type: biochemical; conditions: for HDAC5/HDAC6 in vitro selectivity: ratio of IC50 for HDAC5 relative to that of HDAC6; for IC50: recombinant full-length HDAC5, substrate MAZ1675 40 μM
T3 construct: Recombinant, full-length HDAC protein (BPS Biosciences) was incubated with fluorophore conjugated substrate; purchased BPS Biosciences
T3 sequence (Q9UQL6 whole entry): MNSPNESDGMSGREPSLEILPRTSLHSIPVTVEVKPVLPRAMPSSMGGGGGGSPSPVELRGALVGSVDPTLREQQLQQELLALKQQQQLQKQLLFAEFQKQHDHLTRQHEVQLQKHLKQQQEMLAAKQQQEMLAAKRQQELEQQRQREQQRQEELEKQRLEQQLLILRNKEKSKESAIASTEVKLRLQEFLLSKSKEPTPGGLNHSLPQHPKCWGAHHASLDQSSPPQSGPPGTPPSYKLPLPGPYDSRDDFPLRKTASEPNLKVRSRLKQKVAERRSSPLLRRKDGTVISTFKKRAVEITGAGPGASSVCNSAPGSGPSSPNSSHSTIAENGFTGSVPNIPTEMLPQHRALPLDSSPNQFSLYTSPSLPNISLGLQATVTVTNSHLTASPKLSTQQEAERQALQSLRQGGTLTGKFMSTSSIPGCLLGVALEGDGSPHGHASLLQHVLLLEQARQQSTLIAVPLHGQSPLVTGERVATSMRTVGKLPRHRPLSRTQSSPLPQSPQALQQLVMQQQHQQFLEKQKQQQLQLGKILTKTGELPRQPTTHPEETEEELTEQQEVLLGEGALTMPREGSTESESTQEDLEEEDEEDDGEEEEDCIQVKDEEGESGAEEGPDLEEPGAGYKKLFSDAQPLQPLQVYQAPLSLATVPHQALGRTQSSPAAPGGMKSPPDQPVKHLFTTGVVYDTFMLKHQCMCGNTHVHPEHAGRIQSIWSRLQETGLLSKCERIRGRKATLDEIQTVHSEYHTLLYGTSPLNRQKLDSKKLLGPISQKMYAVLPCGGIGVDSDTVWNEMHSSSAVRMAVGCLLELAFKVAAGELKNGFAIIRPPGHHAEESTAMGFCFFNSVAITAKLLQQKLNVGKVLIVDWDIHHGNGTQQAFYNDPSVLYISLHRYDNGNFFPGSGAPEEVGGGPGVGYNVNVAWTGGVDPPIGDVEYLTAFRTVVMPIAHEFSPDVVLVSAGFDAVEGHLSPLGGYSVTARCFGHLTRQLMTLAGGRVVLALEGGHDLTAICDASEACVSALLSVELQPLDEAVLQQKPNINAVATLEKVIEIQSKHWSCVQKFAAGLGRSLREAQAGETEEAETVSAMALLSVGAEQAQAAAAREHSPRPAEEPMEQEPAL
Outline: as §1

HDAC4 = target: T4, HDAC4 (Homo sapiens, UniProt P56524); assay: In vitro HDAC enzyme inhibition assay, HDAC4; type: biochemical; conditions: for HDAC4/HDAC6 in vitro selectivity: ratio of IC50 for HDAC4 relative to that of HDAC6; for IC50: recombinant full-length HDAC4, substrate MAZ1675 10 μM
T4 construct: Recombinant, full-length HDAC protein (BPS Biosciences) was incubated with fluorophore conjugated substrate; purchased BPS Biosciences
T4 sequence (P56524 whole entry): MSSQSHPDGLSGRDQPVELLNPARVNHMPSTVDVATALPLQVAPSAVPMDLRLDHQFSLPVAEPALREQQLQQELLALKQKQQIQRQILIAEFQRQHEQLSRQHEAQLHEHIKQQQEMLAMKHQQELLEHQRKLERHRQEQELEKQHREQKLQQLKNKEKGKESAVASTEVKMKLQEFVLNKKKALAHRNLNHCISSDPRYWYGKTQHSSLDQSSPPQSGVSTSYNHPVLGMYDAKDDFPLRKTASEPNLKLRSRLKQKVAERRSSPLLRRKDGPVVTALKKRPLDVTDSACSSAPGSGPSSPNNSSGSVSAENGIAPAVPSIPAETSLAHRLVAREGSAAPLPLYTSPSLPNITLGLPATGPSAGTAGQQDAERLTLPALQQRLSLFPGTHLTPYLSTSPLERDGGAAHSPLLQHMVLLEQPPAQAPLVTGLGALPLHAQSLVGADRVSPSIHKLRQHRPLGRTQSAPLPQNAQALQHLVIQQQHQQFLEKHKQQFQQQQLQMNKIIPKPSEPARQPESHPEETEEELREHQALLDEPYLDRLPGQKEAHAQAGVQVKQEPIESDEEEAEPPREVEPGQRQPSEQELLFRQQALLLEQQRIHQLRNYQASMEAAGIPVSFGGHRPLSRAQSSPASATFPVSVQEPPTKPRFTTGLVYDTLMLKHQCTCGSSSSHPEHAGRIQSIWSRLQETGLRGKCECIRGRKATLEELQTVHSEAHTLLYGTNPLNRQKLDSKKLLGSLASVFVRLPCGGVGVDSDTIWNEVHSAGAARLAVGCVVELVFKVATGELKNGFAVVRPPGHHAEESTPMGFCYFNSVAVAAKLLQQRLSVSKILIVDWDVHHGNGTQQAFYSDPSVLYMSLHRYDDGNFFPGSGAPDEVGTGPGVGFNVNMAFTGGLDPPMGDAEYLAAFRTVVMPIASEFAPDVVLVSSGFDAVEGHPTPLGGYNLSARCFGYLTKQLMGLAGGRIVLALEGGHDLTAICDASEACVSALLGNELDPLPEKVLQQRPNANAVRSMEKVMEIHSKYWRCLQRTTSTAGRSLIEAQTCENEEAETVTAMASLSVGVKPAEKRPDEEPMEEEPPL
Outline: as §1

HDAC1 = target: T5, HDAC1 (Homo sapiens, UniProt Q13547); assay: In vitro HDAC enzyme inhibition assay, HDAC1; type: biochemical; conditions: for HDAC1/HDAC6 in vitro selectivity: ratio of IC50 for HDAC1 relative to that of HDAC6; for IC50: recombinant full-length HDAC1, substrate MAZ1600 21 μM
T5 construct: Recombinant, full-length HDAC protein (BPS Biosciences) was incubated with fluorophore conjugated substrate; purchased BPS Biosciences
T5 sequence (Q13547 whole entry): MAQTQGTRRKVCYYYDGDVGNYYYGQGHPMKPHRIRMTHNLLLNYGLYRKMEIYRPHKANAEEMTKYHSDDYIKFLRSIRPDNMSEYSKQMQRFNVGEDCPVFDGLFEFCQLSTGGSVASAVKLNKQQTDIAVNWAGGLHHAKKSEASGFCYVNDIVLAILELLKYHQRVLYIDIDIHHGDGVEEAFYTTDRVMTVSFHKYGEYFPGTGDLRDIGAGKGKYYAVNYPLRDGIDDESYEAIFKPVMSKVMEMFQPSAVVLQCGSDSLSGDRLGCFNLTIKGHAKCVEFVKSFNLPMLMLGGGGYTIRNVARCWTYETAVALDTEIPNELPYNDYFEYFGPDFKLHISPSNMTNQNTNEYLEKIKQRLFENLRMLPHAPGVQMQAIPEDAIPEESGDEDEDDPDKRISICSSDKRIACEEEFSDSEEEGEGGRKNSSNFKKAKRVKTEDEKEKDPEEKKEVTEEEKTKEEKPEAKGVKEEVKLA
Outline: as §1

HDAC9 = target: T6, HDAC9 (Homo sapiens, UniProt Q9UKV0); assay: In vitro HDAC enzyme inhibition assay, HDAC9; type: biochemical; conditions: for HDAC9/HDAC6 in vitro selectivity: ratio of IC50 for HDAC9 relative to that of HDAC6; for IC50: recombinant full-length HDAC9, substrate MAZ1675 26 μM
T6 construct: Recombinant, full-length HDAC protein (BPS Biosciences) was incubated with fluorophore conjugated substrate; purchased BPS Biosciences
T6 sequence (Q9UKV0 whole entry): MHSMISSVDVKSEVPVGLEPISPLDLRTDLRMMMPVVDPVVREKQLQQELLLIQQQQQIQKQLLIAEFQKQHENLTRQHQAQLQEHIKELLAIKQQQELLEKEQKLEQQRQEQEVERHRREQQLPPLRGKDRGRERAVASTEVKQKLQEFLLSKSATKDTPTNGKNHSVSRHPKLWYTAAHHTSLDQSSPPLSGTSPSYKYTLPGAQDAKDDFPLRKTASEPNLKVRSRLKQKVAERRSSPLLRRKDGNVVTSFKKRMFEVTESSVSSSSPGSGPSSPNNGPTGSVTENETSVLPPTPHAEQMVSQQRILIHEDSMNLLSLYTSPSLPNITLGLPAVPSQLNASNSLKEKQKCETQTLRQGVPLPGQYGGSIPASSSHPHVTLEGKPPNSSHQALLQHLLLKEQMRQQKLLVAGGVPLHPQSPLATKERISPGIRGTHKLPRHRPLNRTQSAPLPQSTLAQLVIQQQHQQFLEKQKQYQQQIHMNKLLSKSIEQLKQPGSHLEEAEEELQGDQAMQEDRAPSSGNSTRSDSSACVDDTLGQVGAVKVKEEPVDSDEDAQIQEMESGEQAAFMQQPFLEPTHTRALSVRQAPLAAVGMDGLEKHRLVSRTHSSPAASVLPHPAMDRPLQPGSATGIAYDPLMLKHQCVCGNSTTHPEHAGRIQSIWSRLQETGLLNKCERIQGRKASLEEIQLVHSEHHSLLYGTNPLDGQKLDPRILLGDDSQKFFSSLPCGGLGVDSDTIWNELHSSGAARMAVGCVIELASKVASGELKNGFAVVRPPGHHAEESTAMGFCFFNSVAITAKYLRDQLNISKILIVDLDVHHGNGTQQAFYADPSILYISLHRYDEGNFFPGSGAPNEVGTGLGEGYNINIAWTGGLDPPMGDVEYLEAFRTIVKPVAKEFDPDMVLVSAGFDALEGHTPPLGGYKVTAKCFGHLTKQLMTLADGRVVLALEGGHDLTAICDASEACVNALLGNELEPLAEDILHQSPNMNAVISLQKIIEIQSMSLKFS
Outline: as §1

acetylated tubulin = assay: High-content image analysis of induction of acetylated tubulin in A549 cells; conditions: for EC50: Homo sapiens, A549, 8 h, read-out: EC50 for half-maximal induction of acetylated tubulin (AcTubulin); for AcHistone/AcTubulin in cell selectivity toward HDAC6: ratio of EC50 acetylated histone to EC50 acetylated tubulin
HDAC6 = target: T7, HDAC6 (Homo sapiens, UniProt Q9UBN7); assay: In vitro HDAC enzyme inhibition assay, HDAC6; type: biochemical; conditions: recombinant full-length HDAC6, substrate MAZ1600 9 μM
T7 construct: Recombinant, full-length HDAC protein (BPS Biosciences) was incubated with fluorophore conjugated substrate; purchased BPS Biosciences
T7 sequence (Q9UBN7 1-1215): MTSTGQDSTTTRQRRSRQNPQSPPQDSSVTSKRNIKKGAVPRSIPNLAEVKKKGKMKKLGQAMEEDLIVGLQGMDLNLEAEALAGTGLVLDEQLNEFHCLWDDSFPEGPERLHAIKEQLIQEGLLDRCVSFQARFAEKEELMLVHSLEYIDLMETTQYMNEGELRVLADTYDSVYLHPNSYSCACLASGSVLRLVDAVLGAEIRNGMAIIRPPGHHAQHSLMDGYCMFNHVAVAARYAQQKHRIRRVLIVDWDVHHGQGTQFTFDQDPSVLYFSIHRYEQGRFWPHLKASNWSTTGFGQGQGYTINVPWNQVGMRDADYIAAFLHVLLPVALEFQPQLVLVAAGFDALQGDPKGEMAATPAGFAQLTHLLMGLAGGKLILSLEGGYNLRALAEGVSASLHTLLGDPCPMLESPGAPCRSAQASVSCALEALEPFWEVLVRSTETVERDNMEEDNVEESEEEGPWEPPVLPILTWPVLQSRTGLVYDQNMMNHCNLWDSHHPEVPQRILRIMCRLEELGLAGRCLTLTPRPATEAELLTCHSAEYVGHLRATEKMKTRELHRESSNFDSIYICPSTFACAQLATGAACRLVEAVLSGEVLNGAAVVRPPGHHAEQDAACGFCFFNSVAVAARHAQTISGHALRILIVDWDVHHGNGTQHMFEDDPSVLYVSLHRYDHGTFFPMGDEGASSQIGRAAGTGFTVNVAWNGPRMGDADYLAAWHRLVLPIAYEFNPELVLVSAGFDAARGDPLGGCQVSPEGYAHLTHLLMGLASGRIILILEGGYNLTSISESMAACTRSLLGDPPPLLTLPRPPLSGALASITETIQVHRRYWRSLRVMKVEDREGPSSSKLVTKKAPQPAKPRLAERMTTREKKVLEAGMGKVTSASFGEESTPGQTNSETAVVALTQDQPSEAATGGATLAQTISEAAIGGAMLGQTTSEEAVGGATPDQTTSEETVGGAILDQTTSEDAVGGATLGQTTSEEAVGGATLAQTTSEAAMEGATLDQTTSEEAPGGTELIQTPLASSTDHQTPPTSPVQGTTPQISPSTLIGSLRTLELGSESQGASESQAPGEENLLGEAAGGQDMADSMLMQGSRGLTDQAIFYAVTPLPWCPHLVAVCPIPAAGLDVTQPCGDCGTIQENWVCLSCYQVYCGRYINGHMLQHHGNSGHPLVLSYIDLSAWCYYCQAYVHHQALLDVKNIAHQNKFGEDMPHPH
Outline: as §1

Row | Structure (SMILES) | HDAC3/HDAC6 in vitro selectivity (HDAC3) | IC50 (HDAC3) | EC50 (acetylated histones) | HDAC8/HDAC6 in vitro selectivity (HDAC8) | IC50 (HDAC8) | HDAC5/HDAC6 in vitro selectivity (HDAC5) | IC50 (HDAC5) | HDAC4/HDAC6 in vitro selectivity (HDAC4) | IC50 (HDAC4) | HDAC1/HDAC6 in vitro selectivity (HDAC1) | IC50 (HDAC1) | HDAC9/HDAC6 in vitro selectivity (HDAC9) | IC50 (HDAC9) | EC50 (acetylated tubulin) | AcHistone/AcTubulin in cell selectivity toward HDAC6 (acetylated tubulin; A549 cells) | IC50 (HDAC6) | further results
1 | O=C(NO)c1ccc(Cn2c(=O)[nH]c3cc(Br)ccc32)cc1 [B5, 4-((5-bromo-2-oxo-2,3-dihydro-1H-benzo[d]imidazol-1-yl)methyl)-N-hydroxybenzamide] | 495 | 10.1 nM | 846 nM | 12655 | 259 nM | 39409 | 808 nM | 57687 | 1180 nM | 508 | 10.4 nM | 39480 | 809 nM | 132 nM | 6.398 | 0.0205 nM | selectivity toward HDAC6 compared to HDAC5 (in words) (HDAC5; tested in vitro): exceptionally high selectivity (Inhibitors with in vitro selectivity values for HDAC6 of at least 30,000 are considered to have exceptionally high selectivity toward HDAC6); selectivity toward HDAC6 compared to HDAC4 (in words) (HDAC4; tested in vitro): exceptionally high selectivity (Inhibitors with in vitro selectivity values for HDAC6 of at least 30,000 are considered to have exceptionally high selectivity toward HDAC6); selectivity toward HDAC6 compared to HDAC9 (in words) (HDAC9; tested in vitro): exceptionally high selectivity (Inhibitors with in vitro selectivity values for HDAC6 of at least 30,000 are considered to have exceptionally high selectivity toward HDAC6)
2 | O=C(NO)c1ccc(Cn2c(C(F)(F)F)nc3cc(Cl)ccc32)cc1 [A4, 4-((5-chloro-2-(trifluoromethyl)-1H-benzo[d]imidazol-1-yl)methyl)-N-hydroxybenzamide] | 1096 | 1270 nM | 14900 nM | 1240 | 1440 nM | 246 | 285 nM | 1188 | 1380 nM | 343 | 398 nM | 943 | 1090 nM | 275 nM | 54.11 | 1.16 nM | levels of acetylated histone, dose response (in words) (acetylated histones; A549 cells, FIG. 11): absence of the dose-dependent response; levels of acetylated tubulin, dose response (in words) (acetylated tubulin; A549 cells, FIG. 11): dose-dependent increase
